The NIST ThermoML archive (doi:10.1016/j.jct.2017.05.001)
± gives the expanded uncertainty stated by the source.

Experiment: wn = mass fraction of the nth substance listed
Settings: Liquid; for mass density: Vibrating tube method

CN(C)CCO [2-(N,N-dimethylamino)ethanol] + O
viscosity [mPa·s]
Settings | 293.15 K | 313.15 K
100 kPa, Concentric cylinders viscometry, w1 = 0.1 | 1.587 ± 0.033 | 0.947 ± 0.02
100 kPa, Concentric cylinders viscometry, w1 = 0.2 | 2.614 ± 0.054 | 1.408 ± 0.029
100 kPa, Concentric cylinders viscometry, w1 = 0.3 | 4.334 ± 0.088 | 2.102 ± 0.043
100 kPa, Concentric cylinders viscometry, w1 = 0.4 | 6.754 ± 0.14 | 3.068 ± 0.063
100 kPa, Falling or rolling sphere viscometry, w1 = 0.1005 | 1.559 ± 0.051 | 0.9401 ± 0.031
100 kPa, Falling or rolling sphere viscometry, w1 = 0.202 | 2.533 ± 0.083 | 1.368 ± 0.045
100 kPa, Falling or rolling sphere viscometry, w1 = 0.3005 | 4.211 ± 0.14 | 2.042 ± 0.067
100 kPa, Falling or rolling sphere viscometry, w1 = 0.3995 | 6.587 ± 0.22 | 2.99 ± 0.098
5000 kPa, Falling or rolling sphere viscometry, w1 = 0.1005 | 1.564 ± 0.051 | 0.9415 ± 0.031
5000 kPa, Falling or rolling sphere viscometry, w1 = 0.202 | 2.547 ± 0.084 | 1.374 ± 0.045
5000 kPa, Falling or rolling sphere viscometry, w1 = 0.3005 | 4.223 ± 0.14 | 2.063 ± 0.068
5000 kPa, Falling or rolling sphere viscometry, w1 = 0.3995 | 6.535 ± 0.21 | 3.031 ± 0.1
10000 kPa, Falling or rolling sphere viscometry, w1 = 0.1005 | 1.564 ± 0.051 | 0.9437 ± 0.031
10000 kPa, Falling or rolling sphere viscometry, w1 = 0.202 | 2.557 ± 0.084 | 1.382 ± 0.045
10000 kPa, Falling or rolling sphere viscometry, w1 = 0.3005 | 4.258 ± 0.14 | 2.083 ± 0.068
10000 kPa, Falling or rolling sphere viscometry, w1 = 0.3995 | 6.564 ± 0.22 | 3.075 ± 0.1
15000 kPa, Falling or rolling sphere viscometry, w1 = 0.1005 | 1.563 ± 0.051 | 0.9453 ± 0.031
15000 kPa, Falling or rolling sphere viscometry, w1 = 0.202 | 2.566 ± 0.084 | 1.392 ± 0.046
15000 kPa, Falling or rolling sphere viscometry, w1 = 0.3005 | 4.295 ± 0.14 | 2.103 ± 0.069
15000 kPa, Falling or rolling sphere viscometry, w1 = 0.3995 | 6.801 ± 0.22 | 3.121 ± 0.1
20000 kPa, Falling or rolling sphere viscometry, w1 = 0.1005 | 1.562 ± 0.051 | 0.9476 ± 0.031
20000 kPa, Falling or rolling sphere viscometry, w1 = 0.202 | 2.574 ± 0.084 | 1.395 ± 0.046
20000 kPa, Falling or rolling sphere viscometry, w1 = 0.3005 | 4.33 ± 0.14 | 2.121 ± 0.07
20000 kPa, Falling or rolling sphere viscometry, w1 = 0.3995 | 6.863 ± 0.23 | 3.164 ± 0.1
25000 kPa, Falling or rolling sphere viscometry, w1 = 0.1005 | 1.561 ± 0.051 | 0.9506 ± 0.031
25000 kPa, Falling or rolling sphere viscometry, w1 = 0.202 | 2.583 ± 0.085 | 1.4 ± 0.046
25000 kPa, Falling or rolling sphere viscometry, w1 = 0.3005 | 4.374 ± 0.14 | 2.142 ± 0.07
25000 kPa, Falling or rolling sphere viscometry, w1 = 0.3995 | 6.822 ± 0.22 | 3.209 ± 0.11
30000 kPa, Falling or rolling sphere viscometry, w1 = 0.1005 | 1.564 ± 0.051 | 0.9525 ± 0.031
30000 kPa, Falling or rolling sphere viscometry, w1 = 0.202 | 2.589 ± 0.085 | –
30000 kPa, Falling or rolling sphere viscometry, w1 = 0.3005 | 4.405 ± 0.14 | –
30000 kPa, Falling or rolling sphere viscometry, w1 = 0.3995 | 7.027 ± 0.23 | –
40000 kPa, Falling or rolling sphere viscometry, w1 = 0.1005 | 1.564 ± 0.051 | –
40000 kPa, Falling or rolling sphere viscometry, w1 = 0.202 | 2.605 ± 0.086 | –
40000 kPa, Falling or rolling sphere viscometry, w1 = 0.3005 | 4.464 ± 0.15 | –
40000 kPa, Falling or rolling sphere viscometry, w1 = 0.3995 | 6.883 ± 0.23 | –
60000 kPa, Falling or rolling sphere viscometry, w1 = 0.1005 | 1.562 ± 0.051 | –
60000 kPa, Falling or rolling sphere viscometry, w1 = 0.202 | 2.637 ± 0.087 | –
60000 kPa, Falling or rolling sphere viscometry, w1 = 0.3005 | 4.588 ± 0.15 | –
60000 kPa, Falling or rolling sphere viscometry, w1 = 0.3995 | 7.591 ± 0.25 | –
80000 kPa, Falling or rolling sphere viscometry, w1 = 0.1005 | 1.57 ± 0.052 | –
80000 kPa, Falling or rolling sphere viscometry, w1 = 0.202 | 2.672 ± 0.088 | –
80000 kPa, Falling or rolling sphere viscometry, w1 = 0.3005 | 4.73 ± 0.16 | –
100000 kPa, Falling or rolling sphere viscometry, w1 = 0.1005 | 1.577 ± 0.052 | –
100000 kPa, Falling or rolling sphere viscometry, w1 = 0.202 | 2.706 ± 0.089 | –
100000 kPa, Falling or rolling sphere viscometry, w1 = 0.3005 | 4.861 ± 0.16 | –

mass density [kg/m3]
Settings | w1 = 0.1005 | w1 = 0.202 | w1 = 0.3005 | w1 = 0.3995
293.15 K, 100 kPa | 994.5 ± 0.7 | 992.6 ± 0.7 | 990.6 ± 0.7 | 986.6 ± 0.7
293.15 K, 500 kPa | 994.7 ± 0.7 | 992.7 ± 0.7 | 990.7 ± 0.7 | 986.7 ± 0.7
293.15 K, 1000 kPa | 994.8 ± 0.7 | 992.9 ± 0.7 | 990.9 ± 0.7 | 986.9 ± 0.7
293.15 K, 2000 kPa | 995.3 ± 0.7 | 993.3 ± 0.7 | 991.3 ± 0.7 | 987.3 ± 0.7
293.15 K, 5000 kPa | 996.5 ± 0.7 | 994.4 ± 0.7 | 992.4 ± 0.7 | 988.4 ± 0.7
293.15 K, 10000 kPa | 998.5 ± 0.7 | 996.3 ± 0.7 | 994.2 ± 0.7 | 990.3 ± 0.7
293.15 K, 15000 kPa | 1000.5 ± 0.7 | 998.2 ± 0.7 | 996 ± 0.7 | 992.1 ± 0.7
293.15 K, 20000 kPa | 1002.6 ± 0.7 | 1000 ± 0.7 | 997.8 ± 0.7 | 994 ± 0.7
293.15 K, 30000 kPa | 1006.6 ± 0.7 | 1003.7 ± 0.7 | 1001.4 ± 0.7 | 997.5 ± 0.7
293.15 K, 40000 kPa | 1010.5 ± 0.7 | 1007.4 ± 0.7 | 1004.9 ± 0.7 | 1001 ± 0.7
293.15 K, 50000 kPa | 1014.3 ± 0.7 | 1010.8 ± 0.7 | 1008.2 ± 0.7 | 1004.4 ± 0.7
293.15 K, 60000 kPa | 1018.1 ± 0.7 | 1014.3 ± 0.7 | 1011.6 ± 0.7 | 1007.7 ± 0.7
293.15 K, 70000 kPa | 1021.8 ± 0.7 | 1017.9 ± 0.7 | 1014.9 ± 0.7 | 1011 ± 0.7
293.15 K, 80000 kPa | 1025.3 ± 0.7 | 1021.1 ± 0.7 | 1018 ± 0.7 | 1014.1 ± 0.7
293.15 K, 90000 kPa | 1029 ± 0.7 | 1024.4 ± 0.7 | 1021.2 ± 0.7 | 1017.3 ± 0.7
293.15 K, 100000 kPa | 1032.5 ± 0.7 | 1027.7 ± 0.7 | 1024.3 ± 0.7 | 1020.4 ± 0.7
293.15 K, 110000 kPa | 1035.9 ± 0.7 | 1030.8 ± 0.7 | 1027.2 ± 0.7 | 1023.2 ± 0.7
293.15 K, 120000 kPa | 1039.3 ± 0.7 | 1033.9 ± 0.7 | 1030.2 ± 0.7 | 1026.3 ± 0.7
293.15 K, 130000 kPa | 1042.7 ± 0.7 | 1037.2 ± 0.7 | 1033.3 ± 0.7 | 1029.2 ± 0.7
293.15 K, 140000 kPa | 1045.7 ± 0.8 | 1040.1 ± 0.7 | 1036 ± 0.7 | 1031.9 ± 0.7
313.15 K, 100 kPa | 987.4 ± 0.7 | 983.2 ± 0.7 | 978.8 ± 0.7 | 972.7 ± 0.7
313.15 K, 500 kPa | 987.6 ± 0.7 | 983.4 ± 0.7 | 979 ± 0.7 | 972.9 ± 0.7
313.15 K, 1000 kPa | 987.8 ± 0.7 | 983.6 ± 0.7 | 979.2 ± 0.7 | 973.1 ± 0.7
313.15 K, 2000 kPa | 988.3 ± 0.7 | 984 ± 0.7 | 979.6 ± 0.7 | 973.5 ± 0.7
313.15 K, 5000 kPa | 989.5 ± 0.7 | 985.2 ± 0.7 | 980.8 ± 0.7 | 974.7 ± 0.7
313.15 K, 10000 kPa | 991.5 ± 0.7 | 987.2 ± 0.7 | 982.7 ± 0.7 | 976.7 ± 0.7
313.15 K, 15000 kPa | 993.4 ± 0.7 | 989.1 ± 0.7 | 984.6 ± 0.7 | 978.6 ± 0.7
313.15 K, 20000 kPa | 995.4 ± 0.7 | 990.9 ± 0.7 | 986.5 ± 0.7 | 980.6 ± 0.7
